What all share (assay type): functional
In assay [1] the target is Glycogen synthase kinase-3 beta (Homo sapiens, UniProt P49841). The experiment in a line: GSK3beta kinase inhibitors, dose response, biochemical, microfluidics, dry powder samples, set 2 (AID 623989).
The target in assay [2] is T1, Sentrin-specific protease 8 (Homo sapiens, UniProt Q96LD8).
T1 sequence (Q96LD8 whole entry): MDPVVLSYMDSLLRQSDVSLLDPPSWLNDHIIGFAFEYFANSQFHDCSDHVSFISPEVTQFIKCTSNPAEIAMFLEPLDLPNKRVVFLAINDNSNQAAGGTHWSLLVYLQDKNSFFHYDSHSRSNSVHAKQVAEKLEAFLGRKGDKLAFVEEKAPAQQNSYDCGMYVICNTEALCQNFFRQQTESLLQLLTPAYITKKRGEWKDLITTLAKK
The experiment in a line: SENP8 protease inhibitors, SAR follow-up, biochemical, luminescence (AID 504501).

In assay [3] the target is T2, Sentrin-specific protease 7 (Homo sapiens, UniProt Q9BQF6).
T2 sequence (Q9BQF6 whole entry): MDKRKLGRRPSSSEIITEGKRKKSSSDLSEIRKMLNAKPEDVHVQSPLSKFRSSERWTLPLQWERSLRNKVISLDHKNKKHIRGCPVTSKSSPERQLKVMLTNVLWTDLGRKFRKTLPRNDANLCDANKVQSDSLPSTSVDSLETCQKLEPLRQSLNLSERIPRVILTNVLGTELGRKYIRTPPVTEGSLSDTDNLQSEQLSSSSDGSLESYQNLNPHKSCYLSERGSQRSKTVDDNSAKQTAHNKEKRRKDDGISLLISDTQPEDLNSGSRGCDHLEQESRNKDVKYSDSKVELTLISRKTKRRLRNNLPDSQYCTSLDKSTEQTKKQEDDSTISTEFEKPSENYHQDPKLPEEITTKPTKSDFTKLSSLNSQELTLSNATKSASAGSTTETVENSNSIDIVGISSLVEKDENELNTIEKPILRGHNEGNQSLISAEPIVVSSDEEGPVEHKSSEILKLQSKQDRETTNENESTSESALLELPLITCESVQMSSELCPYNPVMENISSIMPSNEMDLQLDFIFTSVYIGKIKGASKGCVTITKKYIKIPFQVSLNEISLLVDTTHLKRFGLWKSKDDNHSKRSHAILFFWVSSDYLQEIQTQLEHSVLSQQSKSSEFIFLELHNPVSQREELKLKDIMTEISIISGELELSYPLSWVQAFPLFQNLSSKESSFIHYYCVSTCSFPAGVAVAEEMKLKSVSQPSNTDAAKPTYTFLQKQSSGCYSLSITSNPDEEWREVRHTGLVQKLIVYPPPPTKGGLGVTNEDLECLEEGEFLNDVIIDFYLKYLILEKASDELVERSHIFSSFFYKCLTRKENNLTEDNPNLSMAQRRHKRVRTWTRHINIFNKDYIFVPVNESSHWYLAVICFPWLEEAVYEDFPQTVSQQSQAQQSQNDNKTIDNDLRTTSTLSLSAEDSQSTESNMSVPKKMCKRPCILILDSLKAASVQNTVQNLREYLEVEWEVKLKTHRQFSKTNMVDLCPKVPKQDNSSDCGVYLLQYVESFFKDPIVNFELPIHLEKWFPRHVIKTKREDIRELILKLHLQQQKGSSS
The experiment in a line: SENP7 protease inhibitors, SAR follow-up, biochemical, luminescence (AID 504497).

Assay [4] concerns the target T1, Sentrin-specific protease 8. The experiment in a line: SENP8 protease inhibitors, SAR follow-up, biochemical, luminescence, set 2 (AID 588601).
For assay [5], the target named is T3, Sentrin-specific protease 6 (Homo sapiens, UniProt Q9GZR1).
T3 sequence (Q9GZR1 whole entry): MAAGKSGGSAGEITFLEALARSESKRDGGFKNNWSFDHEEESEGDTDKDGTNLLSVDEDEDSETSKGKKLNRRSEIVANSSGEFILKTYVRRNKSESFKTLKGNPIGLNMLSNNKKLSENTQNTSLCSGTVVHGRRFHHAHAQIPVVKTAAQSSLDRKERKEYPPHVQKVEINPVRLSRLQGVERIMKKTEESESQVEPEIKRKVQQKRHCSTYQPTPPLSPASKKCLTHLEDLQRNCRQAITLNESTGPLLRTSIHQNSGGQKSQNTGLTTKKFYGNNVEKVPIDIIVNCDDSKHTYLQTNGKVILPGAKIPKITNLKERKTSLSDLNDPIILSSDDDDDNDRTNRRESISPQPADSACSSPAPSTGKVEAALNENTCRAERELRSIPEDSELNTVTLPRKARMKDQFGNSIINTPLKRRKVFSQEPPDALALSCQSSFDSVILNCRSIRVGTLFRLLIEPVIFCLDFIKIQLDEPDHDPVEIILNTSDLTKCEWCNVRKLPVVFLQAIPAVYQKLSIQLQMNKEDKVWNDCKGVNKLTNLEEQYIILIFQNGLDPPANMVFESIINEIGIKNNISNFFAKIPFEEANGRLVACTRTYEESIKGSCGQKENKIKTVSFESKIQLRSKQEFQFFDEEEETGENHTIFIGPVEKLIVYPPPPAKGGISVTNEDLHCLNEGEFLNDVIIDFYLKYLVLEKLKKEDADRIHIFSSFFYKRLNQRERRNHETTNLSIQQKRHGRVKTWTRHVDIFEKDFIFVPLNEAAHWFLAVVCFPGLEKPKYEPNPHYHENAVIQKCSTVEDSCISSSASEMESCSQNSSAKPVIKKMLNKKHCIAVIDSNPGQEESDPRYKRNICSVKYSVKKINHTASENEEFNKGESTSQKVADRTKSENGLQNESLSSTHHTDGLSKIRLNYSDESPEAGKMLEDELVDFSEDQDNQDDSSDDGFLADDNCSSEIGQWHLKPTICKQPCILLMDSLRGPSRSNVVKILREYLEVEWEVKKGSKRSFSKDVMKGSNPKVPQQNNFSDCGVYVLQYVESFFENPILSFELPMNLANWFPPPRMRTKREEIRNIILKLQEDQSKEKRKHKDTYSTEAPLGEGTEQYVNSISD
The experiment in a line: SAR Analysis of small molecule inhibitors of Sentrin-specific protease 6 (SENP6) using a Luminescent assay. [Related pubchem assays (depositor defined):AID2582, AID2599].

Assay [6] deals with T4, Caspase-3 (Homo sapiens, UniProt P42574).
T4 sequence (P42574 whole entry): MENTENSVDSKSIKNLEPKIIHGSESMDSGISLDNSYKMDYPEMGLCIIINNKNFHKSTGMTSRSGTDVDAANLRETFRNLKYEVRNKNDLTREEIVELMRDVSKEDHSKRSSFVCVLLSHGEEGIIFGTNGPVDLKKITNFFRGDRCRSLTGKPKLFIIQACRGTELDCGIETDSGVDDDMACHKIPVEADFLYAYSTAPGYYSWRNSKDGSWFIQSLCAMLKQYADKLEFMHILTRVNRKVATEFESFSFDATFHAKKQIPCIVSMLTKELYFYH
The experiment in a line: SAR Analysis of small molecule inhibitors of Sentrin-specific proteases (SENPs) using a Caspase-3 Selectivity assay. [Related pubchem assays (depositor defined):AID2540, AID2599, AID434973, AID489001].

The target of assay [7] is T3, Sentrin-specific protease 6. The experiment in a line: SENP6 protease inhibitors, SAR follow-up, biochemical, luminescence, set 2 (AID 588598).
In assay [8] the target is T4, Caspase-3. The experiment in a line: caspase-3 inhibitors as off-family protease, SAR follow-up, selectivity assay for SENP protease inhibitor project, biochemical, luminescence, set 2 (AID 588599).
Assay [9] has as its target T2, Sentrin-specific protease 7. The experiment in a line: SENP7 protease inhibitors, SAR follow-up, biochemical, luminescence, set 2 (AID 588600).
A short description of assay [10]: THP-1 cell cytotoxicity, cytotoxicity control, set 4 (AID 504911). The following applies: Mycobacterium tuberculosis.
Assay [11] in a line: Vero cell cytotoxicity, dose response, cytotoxicity control for M. tuberculosis growth inhibitor project, Vero cells, purified and synthesized compounds, set 4 (AID 504854). The note with it: Mycobacterium tuberculosis.
The nature of assay [12]: THP-1 cell cytotoxicity, dose response, cytotoxicity control, set 3 (AID 504852). The following applies: Mycobacterium tuberculosis.
A short description of assay [13]: Vero cell cytotoxicity, dose response, cytotoxicity control for M. tuberculosis growth inhibitor project, Vero cells, purified and synthesized compounds, set 5 (AID 504909). The note with it: Mycobacterium tuberculosis.
In assay [14] the target is DNA dC->dU-editing enzyme APOBEC-3G (Homo sapiens, UniProt Q9HC16). The experiment in a line: APOBEC3G deaminase inhibitors, SAR follow-up, biochemical, fluorescence, single-stranded DNA substrate (AID 602136). The following applies: read-out: IC50_Mean.
For assay [15], the target named is DNA dC->dU-editing enzyme APOBEC-3A (Homo sapiens, UniProt P31941). The experiment in a line: SAR analysis of small molecule inhibitors of APOBEC3A DNA Deaminase via a fluorescence-based single-stranded DNA deaminase assay. The following applies: read-out: IC50_Mean.
Chain of DNA dC->dU-editing enzyme APOBEC-3A (P31941 whole entry): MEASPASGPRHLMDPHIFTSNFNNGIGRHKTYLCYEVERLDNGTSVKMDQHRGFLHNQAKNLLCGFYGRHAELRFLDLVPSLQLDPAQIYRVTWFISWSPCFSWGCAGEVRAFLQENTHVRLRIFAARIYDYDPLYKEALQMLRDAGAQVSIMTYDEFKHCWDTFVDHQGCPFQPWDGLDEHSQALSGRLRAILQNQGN
Assay [16] addresses Mast/stem cell growth factor receptor Kit (Homo sapiens, UniProt P10721).
Assay [17] addresses Tyrosine-protein kinase ABL1 (Homo sapiens, UniProt P00519).
In assay [18] the target is Tyrosine-protein kinase Blk (Homo sapiens, UniProt P51451).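 Further: obtained as one member of a kinome-wide kinase assay panel.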
Chain of Tyrosine-protein kinase Blk (P51451 whole entry): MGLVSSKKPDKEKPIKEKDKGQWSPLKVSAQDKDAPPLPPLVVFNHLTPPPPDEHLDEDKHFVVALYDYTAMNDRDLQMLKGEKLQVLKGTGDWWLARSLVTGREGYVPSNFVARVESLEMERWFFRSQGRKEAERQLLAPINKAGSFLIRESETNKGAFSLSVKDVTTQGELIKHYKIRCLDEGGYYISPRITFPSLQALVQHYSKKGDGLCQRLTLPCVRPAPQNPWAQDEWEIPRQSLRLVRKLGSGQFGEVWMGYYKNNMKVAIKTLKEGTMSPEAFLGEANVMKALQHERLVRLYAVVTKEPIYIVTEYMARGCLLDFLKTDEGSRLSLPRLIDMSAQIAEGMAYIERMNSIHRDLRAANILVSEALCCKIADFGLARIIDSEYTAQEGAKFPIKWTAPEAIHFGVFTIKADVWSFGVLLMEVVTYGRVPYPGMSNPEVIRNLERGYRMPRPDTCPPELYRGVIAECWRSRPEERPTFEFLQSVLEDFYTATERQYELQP
The target in assay [19] is Macrophage colony-stimulating factor 1 receptor (Homo sapiens, UniProt P07333).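 Further: value comes from the Navigating the Kinome screening panel, CSF1R member.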
Chain of Macrophage colony-stimulating factor 1 receptor (P07333 whole entry): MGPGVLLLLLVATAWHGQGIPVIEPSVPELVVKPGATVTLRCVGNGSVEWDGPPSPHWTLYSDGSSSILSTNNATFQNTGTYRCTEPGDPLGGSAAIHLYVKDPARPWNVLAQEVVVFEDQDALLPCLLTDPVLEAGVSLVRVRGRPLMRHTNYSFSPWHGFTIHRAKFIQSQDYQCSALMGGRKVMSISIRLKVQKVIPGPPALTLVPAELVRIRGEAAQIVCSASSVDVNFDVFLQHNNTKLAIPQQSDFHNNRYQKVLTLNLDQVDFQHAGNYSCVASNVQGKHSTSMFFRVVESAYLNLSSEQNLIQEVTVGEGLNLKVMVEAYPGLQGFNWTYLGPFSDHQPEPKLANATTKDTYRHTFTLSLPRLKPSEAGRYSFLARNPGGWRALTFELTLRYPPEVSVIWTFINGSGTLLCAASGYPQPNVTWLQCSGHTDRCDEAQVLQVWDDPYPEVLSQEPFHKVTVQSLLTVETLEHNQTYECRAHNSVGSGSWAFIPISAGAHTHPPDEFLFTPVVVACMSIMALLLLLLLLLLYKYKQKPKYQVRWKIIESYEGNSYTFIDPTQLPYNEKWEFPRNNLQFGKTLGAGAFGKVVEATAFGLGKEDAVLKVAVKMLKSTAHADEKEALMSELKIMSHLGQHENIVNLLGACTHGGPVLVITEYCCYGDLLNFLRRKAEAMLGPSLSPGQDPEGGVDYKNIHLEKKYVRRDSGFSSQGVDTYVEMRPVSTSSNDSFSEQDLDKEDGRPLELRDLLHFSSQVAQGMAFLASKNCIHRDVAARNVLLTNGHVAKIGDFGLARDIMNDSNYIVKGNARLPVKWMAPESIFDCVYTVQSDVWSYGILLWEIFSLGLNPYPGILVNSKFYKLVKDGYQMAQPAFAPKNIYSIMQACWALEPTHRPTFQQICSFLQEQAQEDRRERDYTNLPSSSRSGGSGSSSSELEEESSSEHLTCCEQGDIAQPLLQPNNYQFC
Assay [20] concerns the target Neuropeptides B/W receptor type 1 (Homo sapiens, UniProt P48145). The experiment in a line: GPR7 antagonist potency, late-stage follow-up, cell-based, fluorescence, dose response, set 6 (AID 588583).
For assay [21], the target named is Melanin-concentrating hormone receptor 1 (Homo sapiens, UniProt Q99705). The experiment in a line: Late-stage fluorescence-based counterscreen for antagonists of the G-protein coupled receptor 7 (GPR7): cell-based dose response assay to identify antagonists of the melanin-concentrating hormone receptor 1 (MCHR1) Set 6. A general note: The purpose of a counterscreen is to sort out artefacts and off-target activity.
Chain of Melanin-concentrating hormone receptor 1 (Q99705 whole entry): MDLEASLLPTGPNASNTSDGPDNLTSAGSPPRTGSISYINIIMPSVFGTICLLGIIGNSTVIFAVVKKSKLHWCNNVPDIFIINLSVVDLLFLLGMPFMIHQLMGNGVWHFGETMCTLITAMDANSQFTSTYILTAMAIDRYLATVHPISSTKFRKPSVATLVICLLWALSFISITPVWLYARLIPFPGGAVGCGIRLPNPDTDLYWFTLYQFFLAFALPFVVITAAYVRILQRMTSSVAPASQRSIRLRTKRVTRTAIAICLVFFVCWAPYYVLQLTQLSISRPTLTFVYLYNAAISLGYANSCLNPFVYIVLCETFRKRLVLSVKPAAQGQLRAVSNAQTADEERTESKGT

Assay [22] addresses Protein disulfide-isomerase (Homo sapiens, UniProt P07237). The experiment in a line: PDI inhibitors, insulin aggregation turbidity, dose response, biochemical, absorbance, cherry-picked samples (AID 602350).
The target of assay [23] is T5, Short transient receptor potential channel 4 (Mus musculus, UniProt Q9QUQ5).
T5 sequence (Q9QUQ5 whole entry): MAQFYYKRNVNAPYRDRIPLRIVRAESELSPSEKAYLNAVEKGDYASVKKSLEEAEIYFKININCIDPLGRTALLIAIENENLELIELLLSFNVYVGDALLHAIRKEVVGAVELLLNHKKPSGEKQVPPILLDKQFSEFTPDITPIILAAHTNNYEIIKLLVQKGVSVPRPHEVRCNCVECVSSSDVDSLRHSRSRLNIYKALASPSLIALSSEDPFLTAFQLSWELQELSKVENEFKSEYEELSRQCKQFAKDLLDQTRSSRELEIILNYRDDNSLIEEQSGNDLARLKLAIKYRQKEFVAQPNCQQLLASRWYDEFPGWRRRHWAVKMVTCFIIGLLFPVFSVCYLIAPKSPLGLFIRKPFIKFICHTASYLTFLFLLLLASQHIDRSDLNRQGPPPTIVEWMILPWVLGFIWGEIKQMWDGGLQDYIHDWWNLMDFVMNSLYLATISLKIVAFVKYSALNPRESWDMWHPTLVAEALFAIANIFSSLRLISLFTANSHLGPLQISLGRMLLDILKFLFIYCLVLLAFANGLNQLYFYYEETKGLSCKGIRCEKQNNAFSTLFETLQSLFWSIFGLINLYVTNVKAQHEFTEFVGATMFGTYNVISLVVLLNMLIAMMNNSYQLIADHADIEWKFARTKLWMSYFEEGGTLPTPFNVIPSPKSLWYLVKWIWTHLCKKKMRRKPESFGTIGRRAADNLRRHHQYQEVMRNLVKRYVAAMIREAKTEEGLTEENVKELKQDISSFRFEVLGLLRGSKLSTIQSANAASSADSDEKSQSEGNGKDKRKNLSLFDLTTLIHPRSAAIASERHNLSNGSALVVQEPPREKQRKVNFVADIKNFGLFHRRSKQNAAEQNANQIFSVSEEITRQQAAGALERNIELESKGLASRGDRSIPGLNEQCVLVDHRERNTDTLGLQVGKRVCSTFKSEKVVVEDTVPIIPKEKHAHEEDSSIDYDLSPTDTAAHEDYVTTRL
The experiment in a line: mouse TRPC4 channel inhibitors, dose response, cell-based, HEK293 TRPC4/mu-opioid, Fluo-4 calcium (AID 434942).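 Further: potency of inhibitors blocking the TRPC4 calcium response.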

The source made the active and inactive calls.

These results are taken from ChEMBL document CHEMBL1201862, “PubChem BioAssay data set” (2004).

Chain of Tyrosine-protein kinase ABL1 (P00519 whole entry): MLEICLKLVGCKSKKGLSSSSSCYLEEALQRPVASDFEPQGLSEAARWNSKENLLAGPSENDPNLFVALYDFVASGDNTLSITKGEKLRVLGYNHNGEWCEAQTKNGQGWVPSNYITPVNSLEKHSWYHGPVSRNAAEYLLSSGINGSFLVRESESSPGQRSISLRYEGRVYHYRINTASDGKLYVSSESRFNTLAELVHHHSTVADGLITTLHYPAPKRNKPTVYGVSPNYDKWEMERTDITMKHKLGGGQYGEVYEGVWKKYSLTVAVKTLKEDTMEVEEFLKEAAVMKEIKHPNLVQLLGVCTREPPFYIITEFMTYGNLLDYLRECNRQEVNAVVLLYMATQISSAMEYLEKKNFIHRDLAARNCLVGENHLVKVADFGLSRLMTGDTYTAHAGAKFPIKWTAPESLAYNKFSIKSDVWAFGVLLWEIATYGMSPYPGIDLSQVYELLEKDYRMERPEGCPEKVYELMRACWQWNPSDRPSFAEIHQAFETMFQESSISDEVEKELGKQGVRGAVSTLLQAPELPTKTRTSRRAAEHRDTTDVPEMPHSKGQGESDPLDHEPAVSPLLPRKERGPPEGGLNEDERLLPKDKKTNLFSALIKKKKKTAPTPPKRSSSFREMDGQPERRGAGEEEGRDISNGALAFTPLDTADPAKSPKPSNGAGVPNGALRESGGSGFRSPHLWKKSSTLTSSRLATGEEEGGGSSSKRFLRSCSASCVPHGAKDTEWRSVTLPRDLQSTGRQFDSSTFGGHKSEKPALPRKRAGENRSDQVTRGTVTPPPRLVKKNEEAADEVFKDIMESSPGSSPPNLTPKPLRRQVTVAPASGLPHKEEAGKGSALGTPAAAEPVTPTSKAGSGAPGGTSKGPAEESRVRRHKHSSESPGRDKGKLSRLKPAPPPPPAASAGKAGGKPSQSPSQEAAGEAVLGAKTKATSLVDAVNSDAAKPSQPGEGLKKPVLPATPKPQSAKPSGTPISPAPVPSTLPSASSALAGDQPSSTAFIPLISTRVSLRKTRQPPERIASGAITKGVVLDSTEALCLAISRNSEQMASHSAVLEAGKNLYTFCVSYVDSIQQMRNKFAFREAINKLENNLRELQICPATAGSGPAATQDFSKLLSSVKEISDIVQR
Chain of Neuropeptides B/W receptor type 1 (P48145 whole entry): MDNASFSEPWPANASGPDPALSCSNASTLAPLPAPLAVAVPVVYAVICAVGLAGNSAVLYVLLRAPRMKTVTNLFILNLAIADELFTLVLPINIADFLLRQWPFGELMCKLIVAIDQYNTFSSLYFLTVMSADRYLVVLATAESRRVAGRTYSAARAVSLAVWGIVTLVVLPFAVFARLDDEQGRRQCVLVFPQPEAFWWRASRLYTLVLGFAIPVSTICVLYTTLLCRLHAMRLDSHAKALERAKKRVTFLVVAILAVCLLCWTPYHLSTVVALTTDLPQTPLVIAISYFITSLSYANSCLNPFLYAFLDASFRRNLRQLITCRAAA
Chain of Mast/stem cell growth factor receptor Kit (P10721 whole entry): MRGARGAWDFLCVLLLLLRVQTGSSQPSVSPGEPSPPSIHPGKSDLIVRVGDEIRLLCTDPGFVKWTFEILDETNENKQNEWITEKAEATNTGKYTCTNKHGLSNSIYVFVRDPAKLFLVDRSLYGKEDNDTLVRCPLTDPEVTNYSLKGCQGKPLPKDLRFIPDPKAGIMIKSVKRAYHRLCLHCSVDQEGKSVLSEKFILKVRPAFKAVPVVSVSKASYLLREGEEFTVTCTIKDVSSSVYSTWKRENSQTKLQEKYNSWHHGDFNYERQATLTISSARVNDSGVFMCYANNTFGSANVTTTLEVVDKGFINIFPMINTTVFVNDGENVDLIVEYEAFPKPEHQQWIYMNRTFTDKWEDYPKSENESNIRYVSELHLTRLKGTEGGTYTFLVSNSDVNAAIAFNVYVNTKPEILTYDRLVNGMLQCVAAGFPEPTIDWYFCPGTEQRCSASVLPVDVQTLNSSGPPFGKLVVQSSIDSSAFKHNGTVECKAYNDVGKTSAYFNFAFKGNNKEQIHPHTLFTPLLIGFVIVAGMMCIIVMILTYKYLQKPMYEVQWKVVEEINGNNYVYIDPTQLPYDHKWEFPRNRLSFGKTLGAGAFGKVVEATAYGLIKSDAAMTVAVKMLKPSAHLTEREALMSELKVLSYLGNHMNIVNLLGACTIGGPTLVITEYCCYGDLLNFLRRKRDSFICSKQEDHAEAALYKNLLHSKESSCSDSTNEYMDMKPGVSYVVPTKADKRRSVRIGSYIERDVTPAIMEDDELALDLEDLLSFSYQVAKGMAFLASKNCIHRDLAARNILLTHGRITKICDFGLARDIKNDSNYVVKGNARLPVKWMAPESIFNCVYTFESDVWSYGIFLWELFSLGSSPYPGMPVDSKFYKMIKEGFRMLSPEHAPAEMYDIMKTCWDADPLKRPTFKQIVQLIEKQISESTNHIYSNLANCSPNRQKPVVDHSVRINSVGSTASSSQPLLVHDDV
Chain of Glycogen synthase kinase-3 beta (P49841 whole entry): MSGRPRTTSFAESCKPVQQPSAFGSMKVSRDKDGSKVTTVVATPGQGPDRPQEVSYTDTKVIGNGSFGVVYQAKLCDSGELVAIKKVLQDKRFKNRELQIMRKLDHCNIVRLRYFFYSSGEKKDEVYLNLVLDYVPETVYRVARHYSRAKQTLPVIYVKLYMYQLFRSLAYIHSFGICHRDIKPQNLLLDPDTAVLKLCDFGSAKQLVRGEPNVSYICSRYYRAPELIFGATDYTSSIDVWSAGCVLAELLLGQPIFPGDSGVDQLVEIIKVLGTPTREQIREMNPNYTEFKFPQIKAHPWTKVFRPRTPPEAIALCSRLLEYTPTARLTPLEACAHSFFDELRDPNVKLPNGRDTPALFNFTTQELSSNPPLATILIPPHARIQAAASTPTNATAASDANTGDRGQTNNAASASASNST

With `COc1ccc(/C=C2\SC(NCc3ccccc3)=NC2=O)cc1`, in [1], the half-maximal activity concentration (AC50) is 6020 nM (active).
Consider `Fc1ccc(/C=C/c2nc(-c3ccccc3)no2)cc1`, for which the IC50 in assay [2] was 16000 nM (active); in assay [3] it was 1700 nM (active); in assay [4] it was 1810 nM (active); in assay [5], 2100 nM (active); on Caspase-3 [6], 5000 nM (active); in assay [7], 1830 nM (active). Further, the IC50 at Caspase-3 [8] was 3020 nM (active); in assay [9], 2090 nM (active).
`COc1cccc(NC(=O)CSc2nc3ccccc3c(=O)[nH]2)c1`: the CC50 in [10], in assay [11], in assay [12] and in assay [13] was > 100000 nM (active) each time.
In the case of `Cc1ccc(N2C(=O)C(=O)N(CC(=O)c3ccc[nH]3)C2=O)c(C)c1`, the IC50 in [14] and in assay [15] was > 99000 nM (inactive) each time.
On to `Cc1cc(C)cc(NC(=O)Nc2ccc(-c3ccnc4c3c(N)nn4C)cc2)c1`, for which the Ki was 1 nM (active) in assay [16], > 631 nM (inactive) in assay [17], 794 nM (active) in [18] and 2 nM (active) in assay [19].
As for `N#CC(c1cccc(Cl)c1)c1c(Cl)cnn(Cc2cccc3ccccc23)c1=O` (stereo not drawn), the IC50 in assay [20] and in [21] was 260 nM (active) each time.
As to `CC(Cc1ccccc1Sc1ccccc1O)N(C)C` (stereo not drawn), the concentration at half-maximal activity (AC50) in [22] is 15900 nM (active). Also, in assay [23], the half-maximal effective concentration (EC50) was 944 nM (active).

A word on the AC50: it is the concentration at which the activity in the assay is half-maximal. One may read the CC50 as the concentration at which the toxic effect on the cells reaches its halfway point. One may read the Ki as the equilibrium dissociation constant of an inhibitor or competing ligand from its target. The term EC50 denotes the concentration giving half of the maximal effect.
